From EP2719280A1, “Use of N-phenylethylpyrazole carboxamide derivatives or salts thereof for resistance management of phytopathogenic fungi” (priority 2012, dated 2014)

What was measured:
[1] = system: Botrytis cinerea (BOTRCI); assay: In vitro microtiter plate assay, mycelial growth determined photometrically at 620nm; format: cell-based; settings: succinate medium; for after 4 days EC50 [ppm]: 4 days after inoculation; for after 6 days EC50 [ppm]: 6 days after inoculation
Protocol: (§1) In Vitro-activity against various strains of Corynespora cassiicola and Botrytis cinerea resistant to SDHIs
Pathogen: Botrytis cinerea (BOTRCI) sampled in European vineyards • 1. sensitive strain B047 • 2. resistant strain B 1 • 3. resistant strain B2 • 4. resistant strain B3 • 5. resistant strain B4 • 6. resistant strain B5 • 7. resistant strain B6
Conidia of isolates of Botrytis cinerea included in the microtiter plate assay were received from cultures grown at 20°C under black light for eight days. Conidia in steril water were used to inoculate the growth medium with 20.000 spores/well. Liquid succinate medium + 40 mg/L Enrofloxacin were used as growth medium. All isolates were tested with the following concentrations of boscalid and compound (1-1): 0 (control) 0.00192, 0.0096, 0.048, 0.24, 1.2, 6 and 30 ppm. 96-well microplates were prepared in the following way: at first, 10 µl methanol (80 %) containing the amount of active ingredient required per concentration, was added to the cavities. After evaporation of the solvent and one day prior to inoculation, 100 ul growth medium was added to each well and the plate was stirred for at least two hours on a shaker. Then, 100 ul of the spore suspension, prepared as described above, were given into each cavity. The plates were incubated at 300 rpm on a shaker for 6 days at 20°C. Mycelia growth was determined photometrically at 620nm, four and six days after inoculation. EC50 values were calculated according to the extinction values.

[2] = system: Corynespora cassiicola (CORYCA); assay: as above; format: cell-based; settings: 400 spores&mycelia / well; for after 3 days EC50 [ppm]: 3 days after inoculation; for after 5 days EC50 [ppm]: 5 days after inoculation; for after 7 days EC50 [ppm]: 7 days after inoculation
Protocol: as §1
Pathogen: Corynespora cassiicola (CORYCA) originating from cucurbits in Florida (US) • 1. sensitive strain (S011/12) • 2. resistant strain S1 • 3. resistant strain S2
Spores and mycelia of isolates of Corynespora cassiicola used in the microtiter plate assays were received from four weeks old cultures grown on PDA at 20 °C under black light. Spores and mycelia in steril water were used to inoculate the growth medium with 400 spores/mycelia per well. In the microtiter plate assay potato dextrose broth (PDB) was used as growth medium containing 25 mg/L Enrofloxacin. All isolates were tested with the following concentrations of boscalid and compound (1-1): 0 (control) 0.0064, 0.032, 0.16, 0.8, 4, 20 and 100 ppm. 96-well microplates were prepared in the following way: at first, 10 µl methanol (80 %) containing the amount of active ingredient required per concentration, was added to the cavities. After evaporation of the solvent and one day prior to inoculation, 140 ul growth medium was added to each well and the plate was stirred for at least two hours on a shaker. Then, 60 ul of the spore suspension, prepared as described above, were given into each cavity. The plates were incubated at 300 rpm on a shaker for 7 days at 24°C. Mycelia growth was determined photometrically at 620nm, three, five and seven days after inoculation. EC50 values were calculated according to the extinction values.

[3] = system: Alternaria alternata SDH-mutants; settings: boscalid-resistant isolates carrying SDH- mutations; in vitro; cited from earlier work

| SMILES | after 4 days EC50 [ppm] ([1]; resistant strain B1) | after 6 days EC50 [ppm] ([1]; resistant strain B1) | after 4 days EC50 [ppm] ([1]; resistant strain B2) | after 6 days EC50 [ppm] ([1]; resistant strain B2) | after 4 days EC50 [ppm] ([1]; resistant strain B3) | after 6 days EC50 [ppm] ([1]; resistant strain B3) | after 4 days EC50 [ppm] ([1]; resistant strain B4) | after 6 days EC50 [ppm] ([1]; resistant strain B4) | after 4 days EC50 [ppm] ([1]; resistant strain B5) | after 6 days EC50 [ppm] ([1]; resistant strain B5) | after 4 days EC50 [ppm] ([1]; resistant strain B6) | after 6 days EC50 [ppm] ([1]; resistant strain B6) | after 4 days EC50 [ppm] ([1]; sensitive strain B047) | after 6 days EC50 [ppm] ([1]; sensitive strain B047) | after 3 days EC50 [ppm] ([2]; isolate S011/12 (sensitive)) | after 5 days EC50 [ppm] ([2]; isolate S011/12 (sensitive)) | after 7 days EC50 [ppm] ([2]; isolate S011/12 (sensitive)) | after 3 days EC50 [ppm] ([2]; resistant strain S1) | after 5 days EC50 [ppm] ([2]; resistant strain S1) | after 7 days EC50 [ppm] ([2]; resistant strain S1) | also measured |
| --- | --- | --- | --- | --- | --- | --- | --- | --- | --- | --- | --- | --- | --- | --- | --- | --- | --- | --- | --- | --- | --- |
| O=C(Nc1ccccc1-c1ccc(Cl)cc1)c1cccnc1Cl [Boscalid] | >30 ppm | >30 ppm | >30 ppm | >30 ppm | >30 ppm | >30 ppm | >30 ppm | >30 ppm | >30 ppm | >30 ppm | >30 ppm | >30 ppm | 0,286 ppm | 0,317 ppm | 0,519 ppm | 1,387 ppm | 1,225 ppm | >100 ppm | >100 ppm | >100 ppm | after 3 days EC50 [ppm] ([2]; resistant strain S2): >100 ppm; after 5 days EC50 [ppm] ([2]; resistant strain S2): >100 ppm; after 7 days EC50 [ppm] ([2]; resistant strain S2): >100 ppm |
| COC(c1ccc(Cl)cc1Cl)C(C)NC(=O)c1cn(C)nc1C(F)F (stereo not drawn) [Compound (1-1), 3-difluoromethyl-1-methyl-1H-pyrazole-4-carboxylic acid [2-(2,4-dichlorophenyl)-2-methoxy-1-methyl-ethyl]-amide] | 4,449 ppm | 6,467 ppm | 2,759 ppm | 3,073 ppm | 1,762 ppm | 1,798 ppm | 2,166 ppm | 1,905 ppm | 14,663 ppm | 18,965 ppm | 0,875 ppm | 1,390 ppm | 0,288 ppm | 0,290 ppm | 0,106 ppm | 0,368 ppm | 0,341 ppm | 1,204 ppm | 1,971 ppm | 1,635 ppm | after 3 days EC50 [ppm] ([2]; resistant strain S2): 2,583 ppm; after 5 days EC50 [ppm] ([2]; resistant strain S2): 7,653 ppm; after 7 days EC50 [ppm] ([2]; resistant strain S2): 10,162 ppm |
| O=C(NCCc1ncc(C(F)(F)F)cc1Cl)c1ccccc1C(F)(F)F [fluopyram] |  |  |  |  |  |  |  |  |  |  |  |  |  |  |  |  |  |  |  |  | mycelial growth [3]: strongly inhibited |
| CC(C)CC(C)c1sccc1NC(=O)c1cn(C)nc1C(F)(F)F (stereo not drawn) [penthiopyrad] |  |  |  |  |  |  |  |  |  |  |  |  |  |  |  |  |  |  |  |  | mycelial growth [3]: not affected |
